Assay results as given in the supplement of paper PMC10307832.

Legend:
Experiment in all cases: relative viability (nuclei count vs DMSO), 5 days (fraction); higher = more cells survive
Doramapimod + Crizotinib = compound: Cc1ccc(-n2nc(C(C)(C)C)cc2NC(=O)Nc2ccc(OCCN3CCOCC3)c3ccccc23)cc1 [Doramapimod] + C[C@@H](Oc1cc(-c2cnn(C3CCNCC3)c2)cnc1N)c1c(Cl)ccc(F)c1Cl [Crizotinib] (partner 1 µM)
Summary of the method: (§1)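 Lung cancer cell lines, seeded in 1536-well plates, were treated the following day by pin tool with a single drug or with five library-drug doses (not always all listed) in √10 steps on top of a fixed anchor-drug dose. Cells were fixed and nuclei stained in one step after 5 days, and nuclei were counted. Relative viability is the nuclei count for treated wells divided by that for vehicle wells, reported as medians of duplicate plates.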

Doramapimod + Bortezomib = compound: Cc1ccc(-n2nc(C(C)(C)C)cc2NC(=O)Nc2ccc(OCCN3CCOCC3)c3ccccc23)cc1 [Doramapimod] + CC(C)C[C@H](NC(=O)[C@H](Cc1ccccc1)NC(=O)c1cnccn1)B(O)O [Bortezomib] (partner 0.002 µM)
Summary of the method: as §1

RAF265 + Pictilisib = compound: Cn1c(Nc2ccc(C(F)(F)F)cc2)nc2cc(Oc3ccnc(-c4ncc(C(F)(F)F)[nH]4)c3)ccc21 [RAF265] + CS(=O)(=O)N1CCN(Cc2cc3nc(-c4cccc5[nH]ncc45)nc(N4CCOCC4)c3s2)CC1 [Pictilisib] (partner 1 µM)
Summary of the method: as §1

RAF265 + Trametinib = compound: Cn1c(Nc2ccc(C(F)(F)F)cc2)nc2cc(Oc3ccnc(-c4ncc(C(F)(F)F)[nH]4)c3)ccc21 [RAF265] + CC(=O)Nc1cccc(-n2c(=O)n(C3CC3)c(=O)c3c(Nc4ccc(I)cc4F)n(C)c(=O)c(C)c32)c1 [Trametinib] (partner 0.02 µM)
Summary of the method: as §1

Cell Line: UMC-11
- relative viability (Doramapimod + Crizotinib; first compound 0.02 µM): 0.58
- relative viability (Doramapimod + Crizotinib; first compound 0.06325 µM): 0.623
- relative viability (Doramapimod + Crizotinib; first compound 0.2 µM): 0.608
- relative viability (Doramapimod + Crizotinib; first compound 0.6325 µM): 0.609
- relative viability (Doramapimod + Crizotinib; first compound 2 µM): 0.567
- relative viability (Doramapimod + Bortezomib; first compound 0.02 µM): 0.772
- relative viability (Doramapimod + Bortezomib; first compound 0.06325 µM): 0.784
- relative viability (Doramapimod + Bortezomib; first compound 0.2 µM): 0.564
- relative viability (Doramapimod + Bortezomib; first compound 0.6325 µM): 0.675
- relative viability (Doramapimod + Bortezomib; first compound 2 µM): 0.568
- relative viability (RAF265 + Pictilisib; first compound 0.01 µM): 0.782
- relative viability (RAF265 + Pictilisib; first compound 0.03162 µM): 0.747
- relative viability (RAF265 + Pictilisib; first compound 0.1 µM): 0.88
- relative viability (RAF265 + Pictilisib; first compound 0.3162 µM): 0.822
- relative viability (RAF265 + Pictilisib; first compound 1 µM): 0.644
- relative viability (RAF265 + Trametinib; first compound 0.01 µM): 0.749
- relative viability (RAF265 + Trametinib; first compound 0.03162 µM): 0.634
- relative viability (RAF265 + Trametinib; first compound 0.1 µM): 0.748
- relative viability (RAF265 + Trametinib; first compound 0.3162 µM): 0.855
- relative viability (RAF265 + Trametinib; first compound 1 µM): 0.649
